US8580829B2 (Boehringer Ingelheim International GmbH, priority 2010, dated 2013)
pIC50: −log10 of the molar value. Like-named read-outs stand apart in the source and are kept apart here.

Experiments:
[1] = tested on: synthesis of LTB4 in human whole blood; experiment: human whole blood LTB4 production inhibition assay; format: cell-based; details: for pIC50: heparinized human whole blood, calcimycin 20 μM, read-out: hWB LTB4 IC50
Summary of the method: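 Readout: plasma LTB4 by antibody-based HTRF. Compound added to heparinized human whole blood, 15 min 37° C; calcimycin 20 μM final (PBS pH 7.4), 30 min 37° C; spun 1500×g 5 min, plasma taken.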

[2] = target: T1, recombinant human FLAP protein (Homo sapiens, UniProt P20292); experiment: FLAP binding assay (Scintillation Proximity Assay, displacement of [125I]L-691,831); details: recombinant human FLAP membranes, [125I]L-691,831 probe; read-out: FLAP SPA IC50
T1 construct: made in house; host or cells: Sf9 insect cells (100,000 x g membrane fraction)
T1 sequence (P20292 1-161): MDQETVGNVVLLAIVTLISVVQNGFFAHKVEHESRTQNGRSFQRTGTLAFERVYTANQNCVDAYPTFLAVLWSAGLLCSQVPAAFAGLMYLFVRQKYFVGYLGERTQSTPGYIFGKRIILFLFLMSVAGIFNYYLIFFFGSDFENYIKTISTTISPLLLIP
Summary of the method: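 Membranes came from Sf9 insect cells expressing recombinant human FLAP, collected as the 100,000×g pellet in Tris pH 7.5/MgCl2/EDTA buffer. 5 μg membrane protein was coupled to WGA SPA beads for 1 h.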

| Structure (SMILES) | pIC50 ([1]; Homo sapiens) | pIC50 [2] | pIC50 [1] | IC50 ([1]; Homo sapiens, read-out: hWB LTB4 IC50 (nM)) |
| --- | --- | --- | --- | --- |
| Cn1cc(-c2nc(C3(c4ccc(-c5cnc(N)nc5)cc4)CC(C)(C)C3)no2)cn1 [Example 123, 5-(4-{3,3-Dimethyl-1-[5-(1-methyl-1H-pyrazol-4-yl)-1,2,4-oxadiazol-3-yl]-cyclobutyl}-phenyl)-pyrimidin-2-ylamine] | 5.82 | 7.46 |  |  |
| Nc1ncc(-c2ccc(C3(c4noc(-c5cnn(CC(=O)NC6CC6)c5)n4)CCC3)cc2)cn1 [Example 132, 2-[4-(3-{1-[4-(2-Amino-pyrimidin-5-yl)-phenyl]-cyclobutyl}-1,2,4-oxadiazol-5-yl)-pyrazol-1-yl]-N-cyclopropyl-acetamide] | 7.16 | 8.55 |  |  |
| CNC(=O)Cn1cccc(-c2nc(C3(c4ccc(-c5cnc(N)nc5)cc4)CCC3)no2)c1=O [Example 118, 2-[3-(3-{1-[4-(2-amino-pyrimidin-5-yl)-phenyl]-cyclobutyl}-1,2,4-oxadiazol-5-yl)-2-oxo-2H-pyridin-1-yl]-N-methyl-acetamide] | 5.77 | 7.68 |  |  |
| COc1ccc(-c2nc(C3(c4ccc(-c5cnc(N)nc5)cc4)CCC3)no2)cc1 [Example 48, 5-(4-{1-[5-(4-Methoxy-phenyl)-1,2,4-oxadiazol-3-yl]-cyclobutyl}-phenyl)-pyrimidin-2-ylamine] | 6.37 | 8.60 |  |  |
| Nc1cnc(-c2ccc(C3(c4noc(-c5cnn(C6COC6)c5)n4)CCC3)cc2)cn1 [Example 299, 5-(4-{1-[5-(1-Oxetan-3-yl-1H-pyrazol-4-yl)-[1,2,4]oxadiazol-3-yl]-cyclobutyl}-phenyl)-pyrazin-2-ylamine; compound with trifluoro-acetic acid] | 7.62 | 8.54 |  |  |
| CC(C)(O)Cn1cncc1-c1nc(C2(c3ccc(-c4cnc(N)nc4)cc3)CCC2)no1 [Example 298, 1-[5-(3-{1-[4-(2-Amino-pyrimidin-5-yl)-phenyl]-cyclobutyl}-[1,2,4]oxadiazol-5-yl)-imidazol-1-yl]-2-methyl-propan-2-ol] | 6.29 | 7.80 |  |  |
| Nc1ncc(-c2ccc(C3(c4noc([C@H]5CCCCN5)n4)CCC3)cc2)cn1 [Example 282, 5-{4-[1-((R)-5-Piperidin-2-yl-[1,2,4]oxadiazol-3-yl)-cyclobutyl]-phenyl}-pyrimidin-2-ylamine] | 5.96 | 7.59 |  |  |
| Nc1ncc(-c2ccc(C3(c4noc(-c5ccc(NCCO)nc5)n4)CCC3)cc2)cn1 [Example 180, 2-[5-(3-{1-[4-(2-Amino-pyrimidin-5-yl)-phenyl]-cyclobutyl}-1,2,4-oxadiazol-5-yl)-pyridin-2-ylamino]-ethanol] | 7.14 | 9.07 |  |  |
| Nc1ncc(-c2ccc(C3(c4noc(-c5c[nH]c(=O)[nH]5)n4)CCC3)cc2)cn1 [Example 9, 4-(3-{1-[4-(2-Amino-pyrimidin-5-yl)-phenyl]-cyclobutyl}-1,2,4-oxadiazol-5-yl)-1,3-dihydro-imidazol-2-one] | 5.70 | 8.15 |  |  |
| Nc1ncc(-c2ccc(C3(c4noc(-c5cnn(C6COC6)c5)n4)CC3)cc2)cn1 [Example 255, 5-(4-{1-[5-(1-Oxetan-3-yl-1H-pyrazol-4-yl)-[1,2,4]oxadiazol-3-yl]-cyclopropyl}-phenyl)-pyrimidin-2-ylamine] | 5.72 | 6.82 |  |  |
| Cn1nccc1-c1nc(C2(c3ccc(-c4cnc(N)nc4)cc3)CCC2)no1 [Example 57, 5-(4-{1-[5-(2-methyl-2H-pyrazol-3-yl)-1,2,4-oxadiazol-3-yl]-cyclobutyl}-phenyl)-pyrimidin-2-ylamine] | 7.35 | 8.74 |  |  |
| CN(C)C(=O)Cn1cc(-c2nc(C3(c4ccc(-c5cnc6[nH]ccc6n5)cc4)CCC3)no2)cn1 [Example 275, N,N-Dimethyl-2-[4-(3-{1-[4-(5H-pyrrolo[2,3-b]pyrazin-2-yl)-phenyl]-cyclobutyl}-[1,2,4]oxadiazol-5-yl)-pyrazol-1-yl]-acetamide] | 6.85 | 8.55 |  |  |
| CO[C@H]1CCN(C(=O)Cn2cc(-c3nc(C4(c5ccc(-c6cnc(N)nc6)cc5)CCC4)no3)cn2)C1 [Example 259, 2-[4-(3-{1-[4-(2-Amino-pyrimidin-5-yl)-phenyl]-cyclobutyl}-[1,2,4]oxadiazol-5-yl)-pyrazol-1-yl]-1-((S)-3-methoxy-pyrrolidin-1-yl)-ethanone] | 6.68 | 7.80 |  |  |
| CN(C)C(=O)Cn1cc(-c2nc(C3(c4ccc(-c5cnc(N)nc5)cc4)CCC3)no2)cn1 [Example 188, 2-[4-(3-{1-[4-(2-amino-pyrimidin-5-yl)-phenyl]-cyclobutyl}-1,2,4-oxadiazol-5-yl)-pyrazol-1-yl]-N,N-dimethyl-acetamide] | 7.09 | 8.21 |  |  |
| Nc1ncc(-c2ccc(C3(c4noc(-c5ccc(C(=O)NCCO)nc5)n4)CCC3)cc2)cn1 [Example 77, 5-(3-{1-[4-(2-Amino-pyrimidin-5-yl)-phenyl]-cyclobutyl}-1,2,4-oxadiazol-5-yl)-pyridine-2-carboxylic acid (2-hydroxy-ethyl)-amide] | 6.80 | 8.59 |  |  |
| CN1CCC(N(C)c2nc(C3(c4ccc(-c5cnc(N)nc5)cc4)CCC3)no2)CC1 [Example 293, 5-[4-(1-{5-[Methyl-(1-methyl-piperidin-4-yl)-amino]-[1,2,4]oxadiazol-3-yl}-cyclobutyl)-phenyl]-pyrimidin-2-ylamine] |  | 6.82 |  | 750 nM |
| Nc1ncc(-c2ccc(C3(c4noc(N5CCCC(CO)C5)n4)CCC3)cc2)cn1 (stereo not shown) [Example 286, [1-(3-{1-[4-(2-Amino-pyrimidin-5-yl)-phenyl]-cyclobutyl}-[1,2,4]oxadiazol-5-yl)-piperidin-3-yl]-methanol] | 6.70 | 7.85 |  |  |
| CC(C(=O)N(C)C)n1cc(-c2nc(C3(c4ccc(-c5cnc(N)nc5)cc4)CCC3)no2)cn1 (stereo not shown) [Example 133, 2-[4-(3-{1-[4-(2-Amino-pyrimidin-5-yl)-phenyl]-cyclobutyl}-1,2,4-oxadiazol-5-yl)-pyrazol-1-yl]-N,N-dimethyl-propionamide] | 7.14 | 8.37 |  |  |
| Cc1cc(-c2nc(C3(c4ccc(-c5cnc(N)nc5)cc4)CCOCC3)no2)n(C)n1 [Example 148, 5-(4-{4-[5-(2,5-Dimethyl-2H-pyrazol-3-yl)-1,2,4-oxadiazol-3-yl]-tetrahydro-pyran-4-yl}-phenyl)-pyrimidin-2-ylamine] | 5.48 | 7.34 |  |  |

Second part, led by results:

| pIC50 ([1]; Homo sapiens) | pIC50 [2] | pIC50 [1] | Structure (SMILES) | IC50 ([1]; Homo sapiens, read-out: hWB LTB4 IC50 (nM)) |
| --- | --- | --- | --- | --- |
| 6.96 | 9.04 |  | CS(=O)(=O)C1CCN(c2ccc(-c3nc(C4(c5ccc(-c6cnc(N)nc6)cc5)CCC4)no3)cn2)C1 (stereo not shown) [Example 110, 5-[4-(1-{5-[6-(3-Methanesulfonyl-pyrrolidin-1-yl)-pyridin-3-yl]-1,2,4-oxadiazol-3-yl}-cyclobutyl)-phenyl]-pyrimidin-2-ylamine] |  |
| 6.96 | 8.64 |  | Nc1ncc(-c2ccc(C3(c4noc(-c5cn[nH]c5)n4)CCC3)cc2)cn1 [Example 175, 5-(4-{1-[5-(1H-Pyrazol-4-yl)-1,2,4-oxadiazol-3-yl]-cyclobutyl}-phenyl)-pyrimidin-2-ylamine] |  |
| 7.62 | 8.68 |  | CNc1cnc(-c2nc(C3(c4ccc(-c5cnc(N)nc5)cc4)CCC3)no2)cn1 [Example 196, 5-(4-{1-[5-(5-Methylamino-pyrazin-2-yl)-1,2,4-oxadiazol-3-yl]-cyclobutyl}-phenyl)-pyrimidin-2-ylamine] |  |
| 6.68 | 8.46 |  | Cc1ccc(-c2nc(C3(c4ccc(-c5cnc(N)nc5)cc4)CCC3)no2)cn1 [Example 152, 5-(4-{1-[5-(6-Methyl-pyridin-3-yl)-1,2,4-oxadiazol-3-yl]-cyclobutyl}-phenyl)-pyrimidin-2-ylamine] |  |
| 6.70 | 8.62 |  | Nc1ncc(-c2ccc(C3(c4noc(-c5cscn5)n4)CCC3)cc2)cn1 [Example 71] |  |
| 7.74 | 8.72 |  | Nc1ncc(-c2ccc(C3(c4noc(-c5cnn6cccnc56)n4)CCC3)cc2)cn1 [Example 72, 5-{4-[1-(5-Pyrazolo[1,5-a]pyrimidin-3-yl-1,2,4-oxadiazol-3-yl)-cyclobutyl]-phenyl}-pyrimidin-2-ylamine] |  |
| 6.64 | 8.68 |  | Nc1ccc(-c2ccc(C3(c4noc(-c5cnc(N6CCNCC6)cn5)n4)CCC3)cc2)cn1 [Example 296, 5-(4-{1-[5-(3,4,5,6-Tetrahydro-2H-[1,2′]bipyrazinyl-5′-yl)-[1,2,4]oxadiazol-3-yl]-cyclobutyl}-phenyl)-pyridin-2-ylamine] |  |
|  | 8.46 | 6.82 | Nc1ncc(-c2ccc(C3(c4noc(-c5cnc(N6CCNCC6)cn5)n4)CCC3)cc2)cn1 [Example 307, 5-(4-{1-[5-(3,4,5,6-Tetrahydro-2H-1,2′-bipyrazinyl-5′-yl)-1,2,4-oxadiazol-3-yl]-cyclobutyl}-phenyl)-pyrimidin-2-ylamine] |  |
|  | 8.40 | 6.82 | Nc1ncc(-c2ccc(C3(c4noc(-c5cnc(N6CCNCC6)cn5)n4)CCC3)cc2)cn1 [Example 214, 5-(4-{1-[5-(3,4,5,6-Tetrahydro-2H-[1,2′]bipyrazinyl-5′-yl)-[1,2,4]oxadiazol-3-yl]-cyclobutyl}-phenyl)-pyrimidin-2-ylamine] |  |
| 7.15 | 8.89 |  | Nc1ncc(-c2ccc(C3(c4noc(-c5cnc(N6CCOCC6)cn5)n4)CCC3)cc2)cn1 [Example 85, 5-(4-{1-[5-(5-Morpholin-4-yl-pyrazin-2-yl)-1,2,4-oxadiazol-3-yl]-cyclobutyl}-phenyl)-pyrimidin-2-ylamine] |  |
